pIC50: −log10 of the molar value.

The target of assay [1] is T1, hCNR2 (CB2R) (Homo sapiens, UniProt P34972).
T1 construct: host or cells: CHO-K1 (purchased recombinant cell line)
Briefly: DiscoveRx cAMP Hunter Express GPCR assay (hCNR2 CHO-K1 cells). It is filed as cell-based. The settings on record: cAMP Hunter eXpress, hCNR2 CHO-K1 cells; read-out: Assay 2 IC50. As for the experimental part:
(§1) Compounds were evaluated for their CB2R agonist potency in the following assays:
Assay 2—DiscoveRx cAMP Hunter Express GPCR Assay
The cAMP Hunter eXpress GPCR assay kit and cells used are from DiscoveRx Corporation (95-0040E2) using the manufacturer's protocol without the optional IBMX step. […] Briefly, hCNR2 CHO-K1 cells were plated in the provided medium (50 ul per well) in half-area 96-well plates (Corning 3885) and placed in an incubator 37° C. 5% CO2 overnight. Next day, the medium was aspirated and replaced with ‘antibody solution’ (22.5 ul) (provided concentrated, diluted 1 in 3 with ‘assay buffer’ provided). The freshly made compounds (at a ×4 final concentration) or solvent alone (1.2% DMSO) were added to the wells and incubated for 30 minutes in a 37° C. incubator 5% CO2. A mixture of lysis solution and two substrates (provided with the DiscoveRx kit) was added to the wells and incubated in the dark for one hour at room temperature. A detection reagent (provided) was then added to the wells and incubated in the dark for 3 hours at room temperature. The luminescence was then read with a Perkin-Elmer luminometer.

The target of assay [2] is T2, hCB2R (Homo sapiens, UniProt P34972).
T2 construct: unnamed tag of the plasmid; expressed in transfected cells
Kind of assay: cAMP assay on hCB2R clone 3D8.3 (transfected CHO-K1 cells). The settings on record: for pIC50: cAMP, hCNR2 CHO-K1 3D8.3 clone, read-out: Assay 1 IC50. In kind it is cell-based. As for the experimental part:
as §1
Assay 1—cAMP Assay on hCB2R Clone 3D8.3:
Chinese hamster ovary cells (CHO)-K1 were transfected with hCB2R plasmid using Genejuice (Merck). After 48 h the cells were transferred into flasks in the presence of the antibiotic G418 and expanded (with continuous replenishment of the antibiotic). Two single-cell cloning rounds were then performed, followed by verification of the presence of the tag of the plasmid and confirming the receptor was functional in cAMP studies. For the screening of compounds: Briefly, hCNR2 CHO-K1 (3D8.3 clone) cells were plated in Optimem+1% FCS (30000 cells, 100 ul per well) in half-area 96-well plates (Corning 3885) and placed in an incubator 37° C. 5% CO2 overnight. Next day, the medium was aspirated and replaced with ‘antibody solution’ (22.5 ul) (provided concentrated, diluted 1 in 3 with ‘assay buffer’ provided). The freshly made compounds (at a ×4 final concentration) or solvent alone (1.2% DMSO) were added to the wells and incubated for 30 minutes in a 37° C. incubator 5% CO2. A mixture of: Lysis solution (38%), substrates (Emerald-II™ (10%) and Galacton-Star® (2%)) and enzyme donor-labeled cAMP (50%) was added to the wells and incubated in the dark for one hour at room temperature. 30 μl of detection reagent (enzyme acceptor, provided) was then added to the wells and incubated in the dark for 3 hours at room temperature. The luminescence was then read with a Perkin-Elmer luminometer.

T1 sequence (P34972 whole entry): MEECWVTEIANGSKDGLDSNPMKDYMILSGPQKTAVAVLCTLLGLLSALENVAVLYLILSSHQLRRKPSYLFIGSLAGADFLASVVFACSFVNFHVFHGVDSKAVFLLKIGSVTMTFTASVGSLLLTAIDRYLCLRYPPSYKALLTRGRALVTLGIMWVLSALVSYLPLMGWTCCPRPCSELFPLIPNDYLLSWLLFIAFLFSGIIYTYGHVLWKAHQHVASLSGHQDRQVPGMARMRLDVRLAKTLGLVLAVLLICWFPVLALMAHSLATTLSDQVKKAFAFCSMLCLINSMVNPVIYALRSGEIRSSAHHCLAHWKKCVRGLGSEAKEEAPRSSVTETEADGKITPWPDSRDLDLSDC
T2 sequence (P34972 whole entry): as above

On to `COC(=O)CCC(=O)n1c2ccccc2c2nnc(SCc3ccccc3C#N)nc21` [Example 26, methyl 4″-(3-((2′-cyanobenzyl)thio)-5H-[1,2,4]triazino[5,6-b]indol-5-yl)-4″-oxobutanoate], for which the negative logarithm of the IC50 (pIC50) in assay [1] is 7.32; in assay [2], 7.37. On to `N#Cc1ccccc1CSc1nnc2c3c(Br)cccc3n(C(=O)C3CC3)c2n1` [Example 44, 2′-(((9-Bromo-5-(cyclopropanecarbonyl)-5H-[1,2,4]triazino[5,6-b]indol-3-yl)thio)methyl)benzonitrile], for which the pIC50 in assay [2] is 7.80. For the compound `Cc1ccccc1CSc1nnc2c(n1)[nH]c1ccccc12` [Example 15, 3-((2′-Methylbenzyl)thio)-5H-[1,2,4]triazino[5,6-b]indole], the pIC50 in assay [1] was 6.67. Turning to `N#Cc1ccccc1CSc1nnc2c3ccccc3n(C(=O)c3ccno3)c2n1` [Example 24, 2′-(((5-(Isoxazole-5″-carbonyl)-5H-[1,2,4]triazino[5,6-b]indol-3-yl)thio)methyl)benzonitrile], the pIC50 in assay [1] is 7.72; in assay [2], 7.85. Consider `Cc1ccccc1-c1cccc2[nH]c3nc(SCc4ccccc4C#N)nnc3c12` [Example 48, 2″-(((9-(o-Tolyl)-5H-[1,2,4]triazino[5,6-b]indol-3-yl)thio)methyl)benzonitrile], for which the pIC50 in assay [2] was 5.37. In the case of `COc1ccc(C(=O)n2c3ccccc3c3nnc(SCc4ccccc4C#N)nc32)cc1OC` [Example 17], the “Assay 1 activity at 3 μM” value in assay [2] is reported as ~60% activity at 3 μM. Take `N#Cc1ccccc1CSc1nnc2c3ccccc3n(C(=O)c3ccc(F)cc3)c2n1` [Example 20, 2′-(((5-(4″-Fluorobenzoyl)-5H-[1,2,4]triazino[5,6-b]indol-3-yl)thio)methyl)benzonitrile]: the pIC50 in assay [1] is 7.24; in assay [2], 7.49. The corresponding values for `O=C(c1ccccc1)n1c2ccccc2c2nnc(SCc3ccccc3[N+](=O)[O-])nc21` [Example 7, (3-((2′-Nitrobenzyl)thio)-5H-[1,2,4]triazino[5,6-b]indol-5-yl)(phenyl)methanone] are 7.12 and 6.08. Turning to `N#Cc1ccccc1CSc1nnc2c3ccccc3n(CC3CC3)c2n1` [Example 41, 2′-((5-(Cyclopropylmethyl)-5H-[1,2,4]triazino[5,6-b]indol-3-ylthio)methyl)benzonitrile], the pIC50 in assay [2] is 6.84. `CCCCSc1nnc2c(n1)[nH]c1ccccc12` [Example 28, 3-(butylthio)-5H-[1,2,4]triazino[5,6-b]indole]: the negative logarithm of the IC50 (pIC50) in assay [1] and in assay [2] was 7.02 each time. Regarding `N#Cc1ccccc1CSc1nnc2c(n1)[nH]c1ccccc12` [Example 2, 3-((2′-Cyanobenzyl)thio)-5H-[1,2,4]triazino[5,6-b]indole], the negative-log IC50 (pIC50) was 6.95 in assay [1] and 6.80 in assay [2]. Take `N#Cc1ccccc1CSc1nnc2c3ccccc3n(C(=O)c3ccco3)c2n1` [Example 23, 2′-(((5-(Furan-2″-carbonyl)-5H-[1,2,4]triazino[5,6-b]indol-3-yl)thio)methyl)benzonitrile]: the values for the pIC50 in assay [1] and in assay [2] were 7.34 and 7.51, respectively. Turning to `COc1ccc(-c2cccc3[nH]c4nc(SCc5ccccc5C#N)nnc4c23)cc1` [Example 49, 2″-(((9-(4′-Methoxyphenyl)-5H-[1,2,4]triazino[5,6-b]indol-3-yl)thio)methyl)benzonitrile], in assay [2], the negative-log IC50 (pIC50) was 5.58. On the same count and under the same terms, for `N#Cc1ccccc1C[S+]([O-])c1nnc2c(n1)[nH]c1ccccc12` (stereo not drawn) [Example 32, 2′-(((5H-[1,2,4]Triazino[5,6-b]indol-3-yl)sulfinyl)methyl)benzonitrile] the value was 5.45; for `N#Cc1ccccc1CSc1nnc2c3ccccc3n(S(=O)(=O)c3ccccc3)c2n1` [Example 34, 2′-(((5-(Phenylsulfonyl)-5H-[1,2,4]triazino[5,6-b]indol-3-yl)thio)methyl)benzonitrile], 7.12. As for `O=[N+]([O-])c1ccccc1CSc1nnc2c3ccccc3n(Cc3ccccc3)c2n1` [Example 14, 5-Benzyl-3-((2′-nitrobenzyl)thio)-5H-[1,2,4]triazino[5,6-b]indole], in assay [2], the “Assay 1 activity at 3 μM” value was ~40% activity at 3 μM. As for `CCCCn1c2ccccc2c2nnc(SCc3ccccc3C#N)nc21` [Example 31, 2′-(((5-Butyl-5H-[1,2,4]triazino[5,6-b]indol-3-yl)thio)methyl)benzonitrile], in assay [2], the pIC50 is 6.97. Consider `N#Cc1ccccc1CSc1nnc2c3ccccc3n(Cc3ccc(F)cc3)c2n1` [Example 37, 2′-(((5-(4″-Fluorobenzyl)-5H-[1,2,4]triazino[5,6-b]indol-3-yl)thio)methyl)benzonitrile], for which the pIC50 in assay [2] was 7.35. As to `c1ccc(-c2nn[nH]n2)c(CSc2nnc3c(n2)[nH]c2ccccc23)c1` [Example 47], the pIC50 in assay [2] was 7.96.

In the case of `O=[N+]([O-])c1ccc(CSc2nnc3c(n2)[nH]c2ccccc23)cc1` [Example 33, 3-((4′-Nitrobenzyl)thio)-5H-[1,2,4]triazino[5,6-b]indole], the pIC50 in assay [2] is 6.21.

For the compound `C[C@@H]1C[C@H]1C(=O)n1c2ccccc2c2nnc(SCc3ccccc3C#N)nc21` (relative stereo) [Example 40, 2′-((5-(2″-Methylcyclopropanecarbonyl)-5H-[1,2,4]triazino[5,6-b]indol-3-ylthio)methyl)benzonitrile], in assay [2], the negative logarithm of the IC50 (pIC50) was 6.20. Regarding `N#Cc1ccccc1CSc1nnc2c3ccccc3n(CC(=O)C3CC3)c2n1` [Example 39, 2′-((5-(2-Cyclopropyl-2-oxoethyl)-5H-[1,2,4]triazino[5,6-b]indol-3-ylthio)methyl)benzonitrile], the pIC50 in assay [2] was 6.26. As for `N#Cc1ccccc1CSc1nnc2c(n1)[nH]c1cccc(C3CC3)c12` [Example 51, 2″-(((9-Cyclopropyl-5H-[1,2,4]triazino[5,6-b]indol-3-yl)thio)methyl)benzonitrile], in assay [2], the negative-log IC50 (pIC50) was 6.64. Consider `N#Cc1ccccc1CSc1nnc2c3ccccc3n(C(=O)C3CC3)c2n1` [Example 42, 2′-(((5-(Cyclopropanecarbonyl)-5H-[1,2,4]triazino[5,6-b]indole-3-yl)thio)methyl)benzonitrile], for which the negative-log IC50 (pIC50) in assay [2] is 6.74. Still for that read-out and setting: for `CC(=O)n1c2ccccc2c2nnc(SCc3ccccc3C#N)nc21` [Example 29, 2′(((5-Acetyl-5H-[1,2,4]triazino[5,6-b]indol-3-yl)thio)methyl)benzonitrile] the value was < 5.52; for `CCn1c2ccccc2c2nnc(SCc3ccccc3C#N)nc21` [Example 30, 2′-(((5-Ethyl-5H-[1,2,4]triazino[5,6-b]indol-3-yl)thio)methyl)benzonitrile], 6.17. In the case of `N#Cc1ccccc1CSc1nnc2c3ccccc3n(C(=O)[C@@H]3C[C@H]3c3ccccc3)c2n1` (stereo in doubt) [Example 38, 2′-((5-(2″-Phenylcyclopropanecarbonyl)-5H-[1,2,4]triazino[5,6-b]indol-3-ylthio)methyl)benzonitrile], the negative-log IC50 (pIC50) in assay [2] is 7.14.

`O=C(O)c1ccccc1CSc1nnc2c(n1)[nH]c1ccccc12` [Example 46, 2′-(((5H-[1,2,4]Triazino[5,6-b]indol-3-yl)thio)methyl)benzoic]: in assay [2], the pIC50 was 5.66. In the case of `N#Cc1ccccc1CSc1nnc2c3c(Br)cccc3n(CC3CC3)c2n1` [Example 43, 2′-(((9-Bromo-5-(cyclopropylmethyl)-5H-[1,2,4]triazino[5,6-b]indol-3-yl)thio)methyl)benzonitrile], the pIC50 in assay [2] is 7.70. Regarding `N#Cc1ccccc1CSc1nnc2c3ccccc3n(Cc3ccc(Cl)cc3)c2n1` [Example 5, 2′(((5-(4″-Chlorobenzyl)-5H-[1,2,4]triazino[5,6-b]indol-3-yl)thio)methyl)benzonitrile], in assay [2], the pIC50 was ~6.22. Regarding `N#Cc1ccccc1CSc1nnc2c3ccccc3n(CC3CCCCC3)c2n1` [Example 36, 2′-(((5-(Cyclohexylmethyl)-5H-[1,2,4]triazino[5,6-b]indol-3-yl)thio)methyl)benzonitrile], the pIC50 in assay [2] was 6.57.

`N#Cc1ccccc1CSc1nnc2c(n1)[nH]c1cccc(-c3ccsc3)c12` [Example 50, 2″-(((9-(Thiophen-3′-yl)-5H-[1,2,4]triazino[5,6-b]indol-3-yl)thio)methyl)benzonitrile]: the pIC50 in assay [2] is 5.75.
